# Test results taken from publication PMC12005767 (Advanced Science, 2025).
# Columns and labels:
# [1] = molecular target: T1, HDAC11 (Homo sapiens, UniProt Q96DB2); assay: HDAC11 inhibition fluorescence assay (ETDKmyr substrate); assay type: biochemical; settings: for IC50: mean ± SEM
# T1 construct: The HDAC11 enzyme was a full‐length human recombinant HDAC enzyme sourced from BPS Bioscience; purchased BPS Bioscience
# T1 sequence (Q96DB2 1-347): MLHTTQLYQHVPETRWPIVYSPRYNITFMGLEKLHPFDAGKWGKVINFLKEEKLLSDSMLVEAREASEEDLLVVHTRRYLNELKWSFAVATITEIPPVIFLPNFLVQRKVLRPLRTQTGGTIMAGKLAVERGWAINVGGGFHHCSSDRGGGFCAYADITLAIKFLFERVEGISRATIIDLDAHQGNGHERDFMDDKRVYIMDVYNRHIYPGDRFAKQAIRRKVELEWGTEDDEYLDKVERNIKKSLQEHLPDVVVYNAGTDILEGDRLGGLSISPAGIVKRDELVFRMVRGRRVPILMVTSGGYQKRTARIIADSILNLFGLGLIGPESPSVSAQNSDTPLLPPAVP
# Experimental: The HDAC11 enzyme was a full‐length human recombinant HDAC enzyme sourced from BPS Bioscience. In detail, a total of 20 µL of recombinant HDAC11 enzyme solution (working concentration = 1 × 10^−9 M) was combined with varying concentrations of the test compound (20 µL) in a 96‐well black plate. The mixture was then incubated at a temperature of 30 °C for a duration of 1 h. Subsequently, 10 µL of the specific fluorogenic substrate (ETDKacyl‐Kmyr) was added. Following 2 h incubation at 30 °C, the catalytic reaction was ceased by adding 10 µL of a developer solution consisting of 2 mg mL^−1 trypsin and 5 × 10^−6 M trichostatin A (TSA). After a standing period of 6 h, the fluorescence intensity was assessed using a microplate reader at excitation and emission wavelengths of 360 and 460 nm, respectively. The inhibition ratios were calculated based on the fluorescence intensity readings of the test wells compared to the control wells. GraphPad Prism 8.0 software was employed to generate IC 50 curves and determine the corresponding IC 50 values utilizing the “log(inhibitor) versus normalized response‐variable slope” function.
# [2] = molecular target: T2, HDAC1 (Homo sapiens, UniProt Q13547); assay: In vitro HDACs inhibition fluorescence assay, HDAC1; assay type: biochemical; settings: mean ± SEM
# T2 construct: purchased BPS Bioscience
# Experimental: (§1) In Vitro HDACs Inhibition Fluorescence Assay: For the inhibitory activity against HDAC1‐10, enzymes were also procured from BPS Bioscience. The in vitro […] inhibition assays were conducted following the established method described previously.^[ [45] ^] The working concentrations of HDAC1‐10 were 4 × 10^−9 M. The fluorogenic substrate of HDAC1, 2, 3, and 6 was Boc‐Lys (acetyl)‐AMC, and the substrate of HDAC4, 5, 7, 8, 9, and 10 was Boc‐Lys (trifluoroacetyl) AMC. The developer solution consists of 30 mg mL^−1 trypsin and 5 × 10^−6 M TSA. A standing period of 30 min was sufficient before assessing the fluorescence intensity.
# [3] = molecular target: T3, HDAC3 (Homo sapiens, UniProt O15379); assay: In vitro HDACs inhibition fluorescence assay, HDAC3; assay type: biochemical; settings: mean ± SEM
# T3 construct: purchased BPS Bioscience
# Experimental: as §1
# [4] = molecular target: T2, HDAC1; design: method as in PMID 27754681; settings: prior research; cited from earlier work
# T2 sequence (Q13547 whole entry): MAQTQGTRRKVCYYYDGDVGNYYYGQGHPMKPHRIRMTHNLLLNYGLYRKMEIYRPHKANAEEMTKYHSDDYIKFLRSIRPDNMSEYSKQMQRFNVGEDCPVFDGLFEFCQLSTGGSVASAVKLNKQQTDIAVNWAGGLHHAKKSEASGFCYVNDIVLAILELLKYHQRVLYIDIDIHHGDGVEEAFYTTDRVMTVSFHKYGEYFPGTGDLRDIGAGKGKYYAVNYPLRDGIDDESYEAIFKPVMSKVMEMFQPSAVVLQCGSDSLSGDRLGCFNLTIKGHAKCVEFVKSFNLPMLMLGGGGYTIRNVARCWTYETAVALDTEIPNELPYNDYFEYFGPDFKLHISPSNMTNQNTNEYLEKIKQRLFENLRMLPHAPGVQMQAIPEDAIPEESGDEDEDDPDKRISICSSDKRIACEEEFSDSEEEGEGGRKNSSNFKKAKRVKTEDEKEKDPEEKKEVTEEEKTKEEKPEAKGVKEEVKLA
# T3 sequence (O15379 whole entry): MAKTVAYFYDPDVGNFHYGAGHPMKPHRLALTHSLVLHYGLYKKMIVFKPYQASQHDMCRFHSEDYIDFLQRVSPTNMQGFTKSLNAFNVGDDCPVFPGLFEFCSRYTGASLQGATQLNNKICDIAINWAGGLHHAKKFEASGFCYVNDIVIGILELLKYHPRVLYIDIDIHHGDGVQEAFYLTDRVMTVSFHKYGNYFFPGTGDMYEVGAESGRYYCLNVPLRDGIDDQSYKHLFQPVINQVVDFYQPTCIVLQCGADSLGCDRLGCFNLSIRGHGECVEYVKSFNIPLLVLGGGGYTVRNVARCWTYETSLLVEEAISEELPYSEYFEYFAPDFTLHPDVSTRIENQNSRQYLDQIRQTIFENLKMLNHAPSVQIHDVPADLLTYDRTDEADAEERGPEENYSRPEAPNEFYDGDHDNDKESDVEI
# T3 sequence (Q9Y618 395-489 partner limits assumed): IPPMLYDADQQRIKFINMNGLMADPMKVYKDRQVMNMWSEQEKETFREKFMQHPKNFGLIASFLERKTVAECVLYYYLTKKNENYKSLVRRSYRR
SMILES,IC50 [1] [µM],IC50 [2] [µM],IC50 [3] [µM],inhibitory activity against HDAC11 (in words) [1],IC50 for HDAC1 (in words) [4]
CCCCCCCNNC(=O)c1ccc(CNC(=O)c2ccccc2)cc1 [A4],3.31 ± 0.157,0.415 ± 0.153,6.36 ± 0.324,,
CCOCCOCCCCCNNC(=O)c1ccc(CNC(=O)c2ccccc2)cc1 [B8],0.801 ± 0.0495,,,,
COCCOCCCCCCNNC(=O)c1ccc(CNC(=O)c2ccccc2)cc1 [B7],2.44 ± 0.223,,,,
CCCCNNC(=O)c1ccc(CNC(=O)c2ccccc2)cc1 [A1],3.25 ± 0.241,0.0205 ± 0.0014,,moderate inhibitory activity,low nanomolar
CCCCCNNC(=O)c1ccc(CNC(=O)c2ccccc2)cc1 [A2],6.74 ± 0.324,0.0456 ± 0.00236,,moderate inhibitory activity,low nanomolar
CCCCCCCCNNC(=O)c1ccc(CNC(=O)c2ccccc2)cc1 [A5],0.942 ± 0.0941,2.05 ± 0.0275,0.501 ± 0.0024,,
CCCCCCNNC(=O)c1ccc(CNC(=O)c2ccccc2)cc1 [A3],> 10,0.0345 ± 0.00315,0.00679 ± 0.00019,,
COCCCCCCCCCNNC(=O)c1ccc(CNC(=O)c2ccccc2)cc1 [B2],1.55 ± 0.116,,,,

# The next molecules have a lower IC50 [1] than those just listed; values first:
IC50 [1] [µM],IC50 [2] [µM],IC50 [3] [µM],inhibitory activity against HDAC11 (in words) [1],SMILES,IC50 for HDAC1 (in words) [4]
0.416 ± 0.0411,> 10,> 10,,CCCCCCCCCCNNC(=O)c1ccc(CNC(=O)c2ccccc2)cc1 [A7],
0.664 ± 0.0649,,,,O=C(NCc1ccc(C(=O)NNCCCCCCCCCCO)cc1)c1ccccc1 [B1],
0.357 ± 0.0165,,,,CCCCOCCCCCCNNC(=O)c1ccc(CNC(=O)c2ccccc2)cc1 [B5],
0.243 ± 0.0123,> 10,> 10,,"CCCCCCCCCCCCCCCCNNC(=O)c1cccs1 [SIS17, reference compound]",
0.257 ± 0.0121,,,,CCCOCCCCCCCNNC(=O)c1ccc(CNC(=O)c2ccccc2)cc1 [B4],
0.132 ± 0.00429,> 10,> 10,,CCCCCCCCCCCCNNC(=O)c1ccc(CNC(=O)c2ccccc2)cc1 [A9],
0.494 ± 0.0419,,,,CCOCCCCCCCCNNC(=O)c1ccc(CNC(=O)c2ccccc2)cc1 [B3],
0.504 ± 0.0455,> 10,2.05 ± 0.0395,,CCCCCCCCCNNC(=O)c1ccc(CNC(=O)c2ccccc2)cc1 [A6],
